Where two headings read alike, the source gives them in different places. Marks after values point to notes of the source that are not given here.
Columns and labels:
[1] = tested on: human umbilical vein endothelial cells (HUVEC); assay: HUVEC proliferation assay (VEGF-stimulated, MTT); type: cell-based; conditions: Homo sapiens, HUVEC; read-out: HUVEC IC50
[2] = Human liver microsome (HLM) assay; type: in vitro ADME; conditions: human liver microsomes, 5 μM test compound
Description: Human Liver Microsome (HLM) Assay Compound metabolism in human liver microsomes was measured by LC-MS analytical assay procedures as follows. […] (3 tubes per test compound-triplicate). […] The samples were then transferred to separate polypropylene microcentrifuge tubes and centrifuged at 14000 g for 10 min. (Fisher Micro […] M0017580). For each replicate (#1-3) at each timepoint (0 and 2 h), an aliquot sample of each test compound was combined into a single HPLC vial insert (6 total samples) for LC-MS analysis, which is described below.

[3] = Determination of inhibitor concentration in mouse plasma after intraperitoneal and oral dosing; type: in vivo; conditions: for concentration at 7 h: vehicle PEG400:H2O pH 2.3 30:70, read-out: Cmin (7 hr conc.)
Method in brief: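 Mice dosed intraperitoneally or orally; blood taken by ocular bleed at 0.5, 1 and 4 h and by intracardiac puncture at 7 h. Plasma extracted with ethyl acetate after internal standard and NaOH addition, analysed by HPLC or LC-MS against a mouse-plasma standard curve.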

[4] = biological target: unphosphorylated VEGF-R2Δ50 (FLVK) (Homo sapiens, UniProt P35968, DEL940-989/E990V); assay: VEGF-R2 coupled spectrophotometric assay, unphosphorylated VEGF-R2Δ50 (FLVK); conditions: FLVK Ki, Table 1
Sequence of unphosphorylated VEGF-R2Δ50 (FLVK) (P35968 with tags, fused parts or gaps DEL940-989/E990V limits assumed): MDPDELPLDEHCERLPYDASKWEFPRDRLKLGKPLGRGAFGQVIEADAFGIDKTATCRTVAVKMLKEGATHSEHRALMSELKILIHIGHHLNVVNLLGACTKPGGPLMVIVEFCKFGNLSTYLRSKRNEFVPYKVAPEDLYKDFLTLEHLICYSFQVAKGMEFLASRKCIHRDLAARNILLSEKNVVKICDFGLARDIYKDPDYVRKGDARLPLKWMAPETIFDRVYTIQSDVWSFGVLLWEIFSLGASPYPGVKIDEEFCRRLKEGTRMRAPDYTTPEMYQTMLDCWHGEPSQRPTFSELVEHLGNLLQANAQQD

[5] = IP, 25 mg/kg, vehicle PEG400:H2O pH 2.3 30:70
[6] = PO, 50 mg/kg, vehicle PEG400:H2O pH 2.3 30:70
[7] = PO, 25 mg/kg, vehicle PEG400:H2O pH 2.3 30:70

SMILES	% remain (HLM, 2 h) [2]	AUClast [3, 5] [ng·h/mL]	plasma half-life (T1/2) [3, 5] [h]	AUClast [3, 6] [ng·h/mL]	plasma half-life (T1/2) [3, 6] [h]	concentration at 7 h ([3]; female, IP, 25 mg/kg) [ng/mL]	concentration at 7 h ([3]; female, PO, 50 mg/kg) [ng/mL]	Ki [4] [nM]	plasma half-life (T1/2) [3, 7] [h]	concentration at 7 h ([3]; female, PO, 25 mg/kg) [ng/mL]	further results
C[C@@H]1C[C@H]1C(=O)Nc1cccc(C(=O)c2ccc3c(/C=C/c4ccccn4)n[nH]c3c2)c1 (racemic) [Example 41(h), 6-[3-((2-RS-trans-Methylcyclopropyl)carboxamido)benzoyl]-3-E-[2-(pyridin-2-yl)ethenyl]-1H-indazole]	8%	26911	1.2	4677	0.7	300	7	–	–	–	IC50 [1]: 2 nM; Cmax [3, 5]: 16005 ng/mL; Cmax [3, 6]: 4080 ng/mL
O=C(Nc1cccc(Oc2ccc3c(/C=C/c4ccc(Cl)cc4)n[nH]c3c2)c1)c1ccccc1 [Example 6(a), N-(3-{3-[2-(4-Chloro-phenyl)-vinyl]-1H-indazol-6-yloxy}-phenyl)-benzamide]	69* %	–	–	–	–	–	–	0.74	–	–	–
Cc1cnc(C(=O)Nc2cccc(N(C)c3ccc4c(/C=C/c5ccccc5)n[nH]c4c3)c2)s1 [Example 12(d), 5-Methyl-thiazole-2-carboxylic Acid {3-[Methyl-(3-styryl-1H-indazol-6-yl)-amino]-phenyl}-amide]	51%	–	–	–	–	–	–	0.39	–	–	–
O=C(Nc1cccc(Nc2ccc3c(/C=C/c4ccccc4)n[nH]c3c2)c1)c1ccccc1 [Example 13, N-[3-(3-Styryl-1H-indazol-6-ylamino)-phenyl]-benzamide]	69%	–	–	–	–	–	–	1.3	–	–	–
CN(c1cccc(NC(=O)c2ccccc2)c1)c1ccc2c(/C=C/c3ccc4c(c3)OCO4)n[nH]c2c1 [Example 16(a), N-(3-{[3-(2Benzo[1,3]dioxol-5-yl-vinyl)-1H-indazol-6-yl]-methyl-amino}-phenyl)-benzanide]	7* %	–	–	–	–	–	–	0.08	–	–	–
Cc1cccc(C(=O)Nc2cccc(N(C)c3ccc4c(/C=C/c5ccc6c(c5)OCO6)n[nH]c4c3)c2)c1 [Example 16(b), N-(3-{[3-(2-Benzo[1,3]dioxol-5-yl-vinyl)-1H-indazol-6-yl]-methyl-amino}-phenyl)-3-methyl-benzamide]	50%	–	–	–	–	–	–	0.34	–	–	–
Cc1cnc(C(=O)Nc2cccc(C(=O)c3ccc4c(/C=C/c5ccccc5)n[nH]c4c3)c2)s1 [Example 19(d), 5-Methyl-thiazole-2-carboxylic Acid[3-(3-styryl-1H-indazole-6-carbonyl)-phenyl]-amide]	36%	–	–	–	–	–	–	0.72	–	–	–
O=C(c1cccc(NC(=O)c2cccc3[nH]ccc23)c1)c1ccc2c(/C=C/c3ccccc3)n[nH]c2c1 [Example 19(f), 6-[3-(Indol-4-ylcarboxamido)benzoyl]-3-E-styryl-1H-indazole]	98%	–	–	–	–	–	–	0.18	–	–	–
COc1ccc(CNC(=O)c2ccccc2Sc2ccc3c(/C=C/c4ccccn4)n[nH]c3c2)cc1 [Example 35(g)]	53%	–	–	–	–	–	–	–	16.1	28	AUClast [3, 7]: 231 ng·h/mL
Cc1ccc(CNC(=O)c2ccccc2Sc2ccc3c(/C=C/c4ccccn4)n[nH]c3c2)o1 [Example 35(h), 6-[2-((5-Methylfur-2-yl)methylcarbamoyl)phenylsulfanyl]-3-E-[2-(pyridin-2-yl)ethenyl]-1H-indazole]	9%	59	1.5	26	–	1	2	–	–	–	Cmax [3, 6]: 7 ng/mL
CC(C)ONC(=O)c1ccccc1Sc1ccc2c(/C=C/c3ccccn3)n[nH]c2c1 [Example 35(k), 6-[2-(Isopropoxycarbamoyl)phenylsulfanyl]-3-E-[2-(pyridin-2-yl)ethenyl]-1H-indazole]	14%	2640	1.4	5529	1.4	35	33	–	–	–	–
O=C(NOCC1CC1)c1ccccc1Sc1ccc2c(/C=C/c3ccccn3)n[nH]c2c1 [Example 35(s), 6-[2-((Cyclopropyl)methoxycarbamoyl)phenylsulfanyl]-3-E-[2-(pyridin-2-yl)ethenyl]-1H-indazole]	16%	–	–	–	–	–	–	–	2.2	86	AUC(0-t) ([3]; female, PO, 25 mg/kg, vehicle PEG400:H2O pH 2.3 30:70): 7420 ng·h/mL; Cmax ([3]; female, PO, 25 mg/kg, vehicle PEG400:H2O pH 2.3 30:70, read-out: Cmax): 3370 ng/mL
CCCONC(=O)c1ccccc1Sc1ccc2c(/C=C/c3ccccn3)n[nH]c2c1 [Example 35(t), 6-[2-(n-Propoxycarbamoyl)phenylsulfanyl]-3-E-[2-(pyridin-2-yl)ethenyl]-1H-indazole]	7%	–	–	–	–	–	–	–	1.1	41	AUClast [3, 7]: 3199 ng·h/mL
O=C(NCC1CC1)c1ccccc1Sc1ccc2c(/C=C/c3ccccn3)n[nH]c2c1 [Example 35(v), 6-[2-(Cyclopropylmethyl-carbamoyl)phenylsulfanyl]-3-E-[2-(pyridin-2-yl)ethenyl]-1H-indazole]	26%	4865	0.9	–	1.0	16	26	–	–	–	AUC(0-t) ([3]; female, PO, 50 mg/kg, vehicle PEG400:H2O pH 2.3 30:70): > 2950 ng·h/mL; Cmax ([3]; female, PO, 50 mg/kg, vehicle PEG400:H2O pH 2.3 30:70, read-out: Cmax): > 2000 ng/mL
CCNC(=O)c1ccccc1Sc1ccc2c(/C=C/c3ccccn3)n[nH]c2c1 [Example 35(x), 6-[2-(Ethylcarbamoyl)phenylsulfanyl]-3-E-[2-(pyridin-2-yl)ethenyl]-1H-indazole]	37%	951	3.2	3516	0.9	48	16	–	–	–	–
O=C(Nc1nccs1)c1ccccc1Sc1ccc2c(/C=C/c3ccccn3)n[nH]c2c1 [Example 35(y), 6-[2-(Thiazol-2-ylcarbamoyl)phenylsulfanyl]-3-E-[2-(pyridin-2-yl)ethenyl]-1H-indazole]	7%	159	1.2	58	1.2	2	1	–	–	–	–
CCOCCNC(=O)c1ccccc1Sc1ccc2c(/C=C/c3ccccn3)n[nH]c2c1 [Example 35(z), 6-[2-(2-(Ethoxy)ethylcarbamoyl)phenylsulfanyl]-3-E-[2-(pyridin-2-yl)ethenyl]-1H-indazole]	2%	837	1.8	1001	1.6	22	14	–	–	–	–
Cn1ccnc1/C=N/NC(=O)c1ccccc1Sc1ccc2c(/C=C/c3ccccn3)n[nH]c2c1 [Example 36(a)]	58%	–	–	–	–	–	–	–	1.5	17	AUClast [3, 7]: 605 ng·h/mL
CC(C)ONC(=O)c1cccc(F)c1Sc1ccc2c(/C=C/c3ccccn3)n[nH]c2c1 [Example 37(c), 6-[6-Fluoro-2-(isopropoxycarbamoyl)phenylsulfanyl]-3-E-[2-(pyridin-2-yl)ethenyl]-1H-indazole]	21%	–	–	–	–	–	–	–	1.2	9	AUClast [3, 7]: 2419 ng·h/mL
COc1cccc(C(=O)Nc2cccc(C(=O)c3ccc4c(/C=C/c5ccccn5)n[nH]c4c3)c2)c1 [Example 41(bb), 6-[3-(3-Methoxybenzamido)benzoyl]-3-E-[2-(pyridin-2-yl)ethenyl]-1H-indazole]	110%	–	–	2178	2.0	–	75	–	–	–	Cmax [3, 6]: 596 ng/mL
CC(C)=CC(=O)Nc1cccc(C(=O)c2ccc3c(/C=C/c4ccccn4)n[nH]c3c2)c1 [Example 41(dd), 6-[3(3,3-Dimethylacrylamido)benzoyl]-3-E-[2-(pyridin-2-yl)ethenyl]-1H-indazole]	7%	–	–	–	–	–	–	–	0.8	1	AUClast [3, 7]: 654 ng·h/mL
Cc1cc(C(=O)Nc2cc(C(=O)c3ccc4c(/C=C/c5ccccn5)n[nH]c4c3)ccc2C)n(C(C)C)n1 [Example 41(kk), 6-[3-((1-Isopropyl-3-methyl-1H-pyrazol-5-yl)carboxamido)-4-methylbenzoyl]-3-E-[2-(pyridin-2-yl)ethenyl]-1H-indazole]	63%	–	–	–	–	–	–	–	2.0	415	AUClast [3, 7]: 11612 ng·h/mL

— patent US6534524B1, “Indazole compounds and pharmaceutical compositions for inhibiting protein kinases, and methods for their use” (Agouron Pharmaceuticals, Inc., priority 1999, dated 2003)
